From article PMC7150870 (Toxins, 2020)
Read-outs that look alike come from different tables or passages of the source. Marks after values point to notes of the source that are not given here.

Columns and labels:
HEK 293T cells [1] = system: HEK 293T cells
cells = details: cited from earlier work
[2] = system: human colon adenocarcinoma HT29 cells; details: cited from earlier work
HEK293T [3] = assay type: cell-based, human
[4] = system: HepG2, Caco-2, RAW 264.7, and HEK 293T cells
HepG2 = assay type: cell-based, human
Caco-2 = assay type: cell-based, human
HEK293T [5] = assay type: cell-based, human; remark: listed apart in the source
HEK 293T cells [6] = assay type: cell-based, human
HEK293T cells = assay type: cell-based, human; details: read-out: IC50 halving the HEK293T cells viability
epithelial cell layers = details: cited from earlier work
RAW 264.7 = assay type: cell-based, mouse
[7] = human (Caco-2), mouse (RAW 264.7)
[8] = read-out: IC50 range in studied cells

## COc1cc(O)c2c(=O)oc3cc(O)cc(C)c3c2c1 [AME, alternariol-9-methyl ether]
Caco-2 cells
  metabolites found by non-target U-HPLC-MS analysis: 3-O-glucuronide, 7-O-glucuronide, and 3-O-sulfate
  transepithelial transport, Apical Medium: 35.92 ± 1.53^c %
  transepithelial transport, Basolateral Medium: 17.68 ± 0.86^bcd %
  transepithelial transport, Caco-2 Cells: 0.49 ± 0.02^ab %
  transepithelial transport, Raw 264.7 Cells: 0.01 ± 0.00^ab %
  transepithelial transport, Total: 53.94 ± 1.59^bc %
HEK 293T cells [1]
  percentage of DNA in comet tail with respect to the negative control: significantly increased
HEK 293T cells [1]; 25 µM, 24 h
  comet tails (percentage of DNA): ~42%
cells
  concentration with statistically significant decrease in viability of cells: 25 µM
[2]
  concentrations significantly increasing the rate of DNA breaks: ≥ 1 µM
HEK293T [3]
  combination index, mixture of DAS (6.58 nM): 0.90 ± 0.05 Add
  combination index, mixture of HT-2 (21.22 nM): 0.92 ± 0.06 Add
  combination index, mixture of T-2 (3.87 nM): 0.97 ± 0.07 Add
  type of interaction, mixture of DAS (6.58 nM): 0.90 ± 0.05 Add (key: Syn: Combination index (CI) < 0.9; Add: 0.9 ≤ CI ≤ 1; Ant: CI > 1)
  type of interaction, mixture of HT-2 (21.22 nM): 0.92 ± 0.06 Add (key: Syn: Combination index (CI) < 0.9; Add: 0.9 ≤ CI ≤ 1; Ant: CI > 1)
  type of interaction, mixture of T-2 (3.87 nM): 0.97 ± 0.07 Add (key: Syn: Combination index (CI) < 0.9; Add: 0.9 ≤ CI ≤ 1; Ant: CI > 1)
[4]
  IC50: > 50 nM

## CC(=O)OC[C@]12C[C@H](OC(=O)CC(C)C)C(C)=C[C@H]1O[C@@H]1[C@H](O)[C@@H](O)[C@@]2(C)[C@]12CO2 [HT-2, HT-2 toxin]
HepG2
  IC50: 47.4 ± 1.29 nM
Caco-2
  IC50: 44.2 ± 2.26 nM
Caco-2 cells; [7]
  transepithelial transport, Apical Medium: 72.63±2.25^f %
  transepithelial transport, Basolateral Medium: 49.18 ± 1.80^g %
  transepithelial transport, Caco-2 Cells: 0.01 ± 0.00^a %
  transepithelial transport, Raw 264.7 Cells: 0.01 ± 0.00^a %
  transepithelial transport, Total: 121.83 ± 1.33^f %
HEK293T [5]
  IC50: 21.2 ± 1.6 nM
HEK293T [3]
  combination index, mixture of DAS (6.58 nM): 0.54 ± 0.03 Syn
  combination index, mixture of T-2 (3.87 nM): 0.67 ± 0.04 Syn
  type of interaction, mixture of DAS (6.58 nM): 0.54 ± 0.03 Syn (key: Syn: Combination index (CI) < 0.9; Add: 0.9 ≤ CI ≤ 1; Ant: CI > 1)
  type of interaction, mixture of T-2 (3.87 nM): 0.67 ± 0.04 Syn (key: Syn: Combination index (CI) < 0.9; Add: 0.9 ≤ CI ≤ 1; Ant: CI > 1)
HEK 293T cells [6]
  combination index, silibinin 1.7 µM: 1.10 ± 0.02 Add
  combination index, silibinin 3.4 µM: 1.27 ± 0.11 Ant
  combination index, silibinin 6.8 µM: 1.57 ± 0.15 Ant
  combination index, silibinin 13.6 µM: 1.25 ± 0.08 Ant
  combination index, silibinin 27.3 µM: 1.06 ± 0.07 Add
  combination index, silibinin 54.5 µM: 1.03 ± 0.04 Add
  combination index, silibinin 109.00 µM: 1.08 ± 0.03 Add
  type of interaction, silibinin 1.7 µM: 1.10 ± 0.02 Add (key: Syn: Combination index (CI) < 0.9; Add: 0.9 ≤ CI ≤ 1; Ant: CI > 1)
  type of interaction, silibinin 3.4 µM: 1.27 ± 0.11 Ant (key: Syn: Combination index (CI) < 0.9; Add: 0.9 ≤ CI ≤ 1; Ant: CI > 1)
  type of interaction, silibinin 6.8 µM: 1.57 ± 0.15 Ant (key: Syn: Combination index (CI) < 0.9; Add: 0.9 ≤ CI ≤ 1; Ant: CI > 1)
  type of interaction, silibinin 13.6 µM: 1.25 ± 0.08 Ant (key: Syn: Combination index (CI) < 0.9; Add: 0.9 ≤ CI ≤ 1; Ant: CI > 1)
  type of interaction, silibinin 27.3 µM: 1.06 ± 0.07 Add (key: Syn: Combination index (CI) < 0.9; Add: 0.9 ≤ CI ≤ 1; Ant: CI > 1)
  type of interaction, silibinin 54.5 µM: 1.03 ± 0.04 Add (key: Syn: Combination index (CI) < 0.9; Add: 0.9 ≤ CI ≤ 1; Ant: CI > 1)
  type of interaction, silibinin 109.00 µM: 1.08 ± 0.03 Add (key: Syn: Combination index (CI) < 0.9; Add: 0.9 ≤ CI ≤ 1; Ant: CI > 1)
HEK293T cells
  IC50: 30 nM
[4]; [8]
  IC50: 5.07 to 47.4 nM
Epithelial cell layers
  transport through the epithelial cell layers: ≤ 32%
RAW 264.7
  IC50: 5.07 ± 0.46 nM

## CC(C)C[C@@H]1NC(=O)[C@H](C)N(C)C(=O)CNC(=O)/C(=C/c2ccccc2)N(C)C1=O [TEN, tentoxin]
Caco-2 cells
  metabolites found by non-target U-HPLC-MS analysis: metabolite M1, metabolite M2, and metabolite M3
  transepithelial transport, Apical Medium: 28.07 ± 0.62^abc %
  transepithelial transport, Basolateral Medium: 7.25 ± 0.72^ab %
  transepithelial transport, Caco-2 Cells: 0.00 ± 0.00^a %
  transepithelial transport, Raw 264.7 Cells: 0.00 ± 0.00^a %
  transepithelial transport, Total: 35.33 ± 0.10^ab %
HEK 293T cells [1]
  percentage of DNA in comet tail with respect to the negative control: no significant DNA damage
HEK293T [3]
  combination index, mixture of DAS (6.58 nM): 0.92 ± 0.17 Add
  combination index, mixture of HT-2 (21.22 nM): 0.94 ± 0.04 Add
  combination index, mixture of T-2 (3.87 nM): 0.92 ± 0.07 Add
  type of interaction, mixture of DAS (6.58 nM): 0.92 ± 0.17 Add (key: Syn: Combination index (CI) < 0.9; Add: 0.9 ≤ CI ≤ 1; Ant: CI > 1)
  type of interaction, mixture of HT-2 (21.22 nM): 0.94 ± 0.04 Add (key: Syn: Combination index (CI) < 0.9; Add: 0.9 ≤ CI ≤ 1; Ant: CI > 1)
  type of interaction, mixture of T-2 (3.87 nM): 0.92 ± 0.07 Add (key: Syn: Combination index (CI) < 0.9; Add: 0.9 ≤ CI ≤ 1; Ant: CI > 1)
[4]
  IC50: > 50 nM

## enniatin A [ENN-A]
cells
  concentration with statistically significant decrease in viability of cells: 1 µM
HEK293T [3]
  combination index, mixture of DAS (6.58 nM): 0.83 ± 0.05 Syn
  combination index, mixture of HT-2 (21.22 nM): 0.80 ± 0.06 Syn
  combination index, mixture of T-2 (3.87 nM): 0.86 ± 0.07 Syn
  type of interaction, mixture of DAS (6.58 nM): 0.83 ± 0.05 Syn (key: Syn: Combination index (CI) < 0.9; Add: 0.9 ≤ CI ≤ 1; Ant: CI > 1)
  type of interaction, mixture of HT-2 (21.22 nM): 0.80 ± 0.06 Syn (key: Syn: Combination index (CI) < 0.9; Add: 0.9 ≤ CI ≤ 1; Ant: CI > 1)
  type of interaction, mixture of T-2 (3.87 nM): 0.86 ± 0.07 Syn (key: Syn: Combination index (CI) < 0.9; Add: 0.9 ≤ CI ≤ 1; Ant: CI > 1)

## diacetoxyscirpenol [DAS]
HepG2
  IC50: 13.4 ± 1.79 nM
Caco-2
  IC50: 17.7 ± 0.66 nM
Caco-2 cells
  metabolites found by non-target U-HPLC-MS analysis: 15-monoacetoxyscirpenol, 4-monoacetoxyscirpenol, 7-hydroxy, 8β-hydroxy, and deepoxy-15- monoacetoxyscirpenol
  transepithelial transport, Apical Medium: 29.61 ± 0.87^abc %
  transepithelial transport, Basolateral Medium: 40.12 ± 0.50^f %
  transepithelial transport, Caco-2 Cells: 0.02 ± 0.00^a %
  transepithelial transport, Raw 264.7 Cells: 0.02 ± 0.00^a %
  transepithelial transport, Total: 69.77 ± 0.99^cd %
HEK293T [5]
  IC50: 6.58 ± 0.36 nM
HEK293T [3]
  combination index, mixture of T-2 (3.87 nM): 0.64 ± 0.01 Syn
  type of interaction, mixture of T-2 (3.87 nM): 0.64 ± 0.01 Syn (key: Syn: Combination index (CI) < 0.9; Add: 0.9 ≤ CI ≤ 1; Ant: CI > 1)
HEK 293T cells [6]
  combination index, silibinin 0.9 µM: 1.00 ± 0.04 Add
  combination index, silibinin 1.7 µM: 1.23 ± 0.06 Ant
  combination index, silibinin 3.4 µM: 1.21 ± 0.05 Ant
  combination index, silibinin 6.8 µM: 1.50 ± 0.04 Ant
  combination index, silibinin 13.6 µM: 1.56 ± 0.13 Ant
  combination index, silibinin 27.3 µM: 1.48 ± 0.08 Ant
  combination index, silibinin 54.5 µM: 1.15 ± 0.02 Ant
  combination index, silibinin 109.00 µM: 1.14 ± 0.01 Ant
  type of interaction, silibinin 0.9 µM: 1.00 ± 0.04 Add (key: Syn: Combination index (CI) < 0.9; Add: 0.9 ≤ CI ≤ 1; Ant: CI > 1)
  type of interaction, silibinin 1.7 µM: 1.23 ± 0.06 Ant (key: Syn: Combination index (CI) < 0.9; Add: 0.9 ≤ CI ≤ 1; Ant: CI > 1)
  type of interaction, silibinin 3.4 µM: 1.21 ± 0.05 Ant (key: Syn: Combination index (CI) < 0.9; Add: 0.9 ≤ CI ≤ 1; Ant: CI > 1)
  type of interaction, silibinin 6.8 µM: 1.50 ± 0.04 Ant (key: Syn: Combination index (CI) < 0.9; Add: 0.9 ≤ CI ≤ 1; Ant: CI > 1)
  type of interaction, silibinin 13.6 µM: 1.56 ± 0.13 Ant (key: Syn: Combination index (CI) < 0.9; Add: 0.9 ≤ CI ≤ 1; Ant: CI > 1)
  type of interaction, silibinin 27.3 µM: 1.48 ± 0.08 Ant (key: Syn: Combination index (CI) < 0.9; Add: 0.9 ≤ CI ≤ 1; Ant: CI > 1)
  type of interaction, silibinin 54.5 µM: 1.15 ± 0.02 Ant (key: Syn: Combination index (CI) < 0.9; Add: 0.9 ≤ CI ≤ 1; Ant: CI > 1)
  type of interaction, silibinin 109.00 µM: 1.14 ± 0.01 Ant (key: Syn: Combination index (CI) < 0.9; Add: 0.9 ≤ CI ≤ 1; Ant: CI > 1)
HEK293T cells
  IC50: 15 nM
[4]; [8]
  IC50: 3.66 to 17.7 nM
RAW 264.7
  IC50: 3.66 ± 0.37 nM

## enniatin A1 [ENN-A1]
cells
  concentration with statistically significant decrease in viability of cells: 1 µM
HEK293T [3]
  combination index, mixture of DAS (6.58 nM): 0.79 ± 0.04 Syn
  combination index, mixture of HT-2 (21.22 nM): 0.93 ± 0.01 Add
  combination index, mixture of T-2 (3.87 nM): 1.27 ± 0.13 Ant
  type of interaction, mixture of DAS (6.58 nM): 0.79 ± 0.04 Syn (key: Syn: Combination index (CI) < 0.9; Add: 0.9 ≤ CI ≤ 1; Ant: CI > 1)
  type of interaction, mixture of HT-2 (21.22 nM): 0.93 ± 0.01 Add (key: Syn: Combination index (CI) < 0.9; Add: 0.9 ≤ CI ≤ 1; Ant: CI > 1)
  type of interaction, mixture of T-2 (3.87 nM): 1.27 ± 0.13 Ant (key: Syn: Combination index (CI) < 0.9; Add: 0.9 ≤ CI ≤ 1; Ant: CI > 1)

## beauvericin
cells
  concentration with statistically significant decrease in viability of cells: 3 µM
HEK293T [3]
  combination index, mixture of DAS (6.58 nM): 0.96 ± 0.04 Add
  combination index, mixture of HT-2 (21.22 nM): 0.91 ± 0.04 Add
  combination index, mixture of T-2 (3.87 nM): 0.95 ± 0.07 Add
  type of interaction, mixture of DAS (6.58 nM): 0.96 ± 0.04 Add (key: Syn: Combination index (CI) < 0.9; Add: 0.9 ≤ CI ≤ 1; Ant: CI > 1)
  type of interaction, mixture of HT-2 (21.22 nM): 0.91 ± 0.04 Add (key: Syn: Combination index (CI) < 0.9; Add: 0.9 ≤ CI ≤ 1; Ant: CI > 1)
  type of interaction, mixture of T-2 (3.87 nM): 0.95 ± 0.07 Add (key: Syn: Combination index (CI) < 0.9; Add: 0.9 ≤ CI ≤ 1; Ant: CI > 1)
